Reference: patent US10364263B2, “Cyclic phosphates and cyclic phosphoramidates for the treatment of neurologic disorders” (Retrophin, Inc., priority 2015, dated 2019)

These compounds were tested on PANK2 silenced human neuroblastoma IMR32 cells (PANK2−/−) (assay: Coenzyme A assay in PANK2 silenced cells (LC-MS quantification of free CoA)). Conditions: compound added twice (24 h + 24 h), relative to 0.1% DMSO controls.
Assay type: cell-based
Description: A human neuroblastoma IMR32 cell line (ATCC) with stably PANK2 silencing was obtained by lentiviral-delivered small hairpin RNA and cultured in MEM (Invitrogen) supplemented with 10% fetal bovine serum, 2 mM glutamine, 1% penicillin-streptomycin, 1 mM sodium pyruvate, 1 mM non essential amino acids and 1.5 g/l sodium bicarbonate.
For lentiviral shRNA expression, Human Emryonic Kidney HEK-293T cells (ATCC) were transfected with the appropriate pGFP-Lenti-shRNA constructs and packaging plasmids according to manufacturer's protocol (Origene Technologies, Inc.). Four different gene-specific shRNA expression vectors designed against multiple splice variants of PANK2 (Gene ID 80025) were used for transfection. A non-silencing shRNA construct (scrambled shRNA) and an empty vector expressing GFP alone were used as negative controls. The GFP tag subcloned into the lentiviral vectors was used to monitor the transfection efficiency.
IMR32 cells were plated on 150 cm dishes 48 h before transduction with lentiviral particles.
Three days after transduction medium was removed and replaced with fresh medium containing […] puromycin. Medium was replaced every 48 h. Levels of PANK2 expression on selected clones was assessed by Western Blot analysis.
To quantify CoA, PANK2^−/− IMR32 cells were plated on 12-well culture plates (Corning) at a density of 0.2×10^6 cells per well. After 72 h, compounds were freshly dissolved in DMSO and added to the culture medium to yield a final solvent concentration of 0.1% (v/v). Controls with medium containing 0.1% DMSO without test compounds were also included in each plate. Compound treated cells were incubated for 24 h at 37° C. Treatment was repeated after 24 h with newly dissolved compound and cells were further incubated at 37° C. for additional 24 h. Before LC-MS analysis of CoA levels, cells were harvested, counted, and collected in a 15 ml falcon tube and centrifuged at 200×g for 5 min at 4° C. Supernatant was removed and cell pellet was washed in 10 ml of ice-cold PBS. To further confirm that the numbers of cells in each sample were equivalent, an equal fraction of pellet was collected from each sample and subjected to protein determination analysis. After centrifugation and supernatant removal, the cell pellet was rapidly frozen in Liquid Nitrogen and stored at −80° C. until analysis.
Intracellular CoA levels were calculated considering an intracellular volume of 1 million cells=2 μl.
The 1×10^6 cellular pellet was extracted with 120 μl of aqueous 20% TFA. This solution was stirred for 2 min, sonicated in ultrasonic bath for 2 min, then stirred again for 1 min, and centrifuged for 15 min at 14000 g and at 4° C.
100 μL samples of supernatant were dried under N2 at 20° C. in the dark.
Samples were re-dissolved in 100 μl of 10 mM NH4^+ AcO^− buffer pH 5.1+IS (Dextrorphan 50 ng/ml), stirred for 2 min, sonicated in ultrasonic bath for 1 min, then stirred again for 1 min, and injected into LC-MS.
LC-MS/MS was performed using an Agilent HPLC (1100 Series, USA). The LC system was interfaced with an API-4000 Q-Trap triple quadrupole mass spectrometer (AB Sciex, Toronto, Canada) equipped with a TurbolonSpray ionization source operating in positive ion mode. Analyst™ software version 1.6 (AB Sciex, Toronto, Canada) was used for data acquisition and processing. CoA was separated using a Luna C18 column (2.0×50 mm; 5 μm particle size), column at 25° C. and flow rate of 0.2 ml/min. Injection volume was 15 μl. The mobile phases consisted of water containing 10 mM ammonium acetate pH 7 (mobile phase A) and MeCN-2-propanol 9:1 (mobile phase B). Elution was performed using a gradient starting at 2% B, holding at 2% B until 0.1 min, increasing to 98% B at 3.2 min, holding at 98% B until 4.5 min, returning to 2% B at 4.6 min and holding at 2% B until 7.5 min. Precursor ions and MRM transitions used were: CoA m/z 768.1→261.6 and 768.1→136.1. […]
For `COC(=O)CCNC(=O)[C@@H]1O[P@](=O)(OCOC(=O)c2scnc2C(C)C)OCC1(C)C` [2-188, (((2R,4R)-4-((3-methoxy-3-oxopropyl)carbamoyl)-5,5-dimethyl-2-oxido-1,3,2-dioxaphosphinan-2-yl)oxy)methyl 4-isopropylthiazole-5-carboxylate], the “PANK2−/− CoA (Fold Increase): fold increase in Coenzyme A (CoA) levels relative to controls” value was 131.48 Fold Increase.
`COC(=O)CCNC(=O)[C@@H]1O[P@](=O)(OCOC(=O)c2scnc2C)OCC1(C)C` (single isomer, unassigned) [2-150] was tested, and the “PANK2−/− CoA (Fold Increase): fold increase in Coenzyme A (CoA) levels relative to controls” value was 43.4 Fold Increase.
For `COC(=O)CCNC(=O)[C@@H]1O[P@](=O)(OCC(F)(F)F)OCC1(C)C` [2-123, methyl 3-((2S,4R)-5,5-dimethyl-2-oxido-2-(2,2,2-trifluoroethoxy)-1,3,2-dioxaphosphinane-4-carboxamido)propanoate], the “PANK2−/− CoA (Fold Increase): fold increase in Coenzyme A (CoA) levels relative to controls” value was 1.46 Fold Increase.
For `COC(=O)CCNC(=O)[C@@H]1OP(=O)(OCOC(=O)c2cc(C(C)(C)C)nn2C)OCC1(C)C` (stereo partly drawn) [2-144, (((4R)-4-((3-methoxy-3-oxopropyl)carbamoyl)-5,5-dimethyl-2-oxido-1,3,2-dioxaphosphinan-2-yl)oxy)methyl 3-(tert-butyl)-1-methyl-1H-pyrazole-5-carboxylate], the “PANK2−/− CoA (Fold Increase): fold increase in Coenzyme A (CoA) levels relative to controls” value was 77.8 Fold Increase.
With `COC(=O)CCNC(=O)[C@@H]1O[P@@](=O)(OCOC(=O)c2ccnn2C)OCC1(C)C` [2-184, (((2S,4R)-4-((3-methoxy-3-oxopropyl)carbamoyl)-5,5-dimethyl-2-oxido-1,3,2-dioxaphosphinan-2-yl)oxy)methyl 1-methyl-1H-pyrazole-5-carboxylate] the “PANK2−/− CoA (Fold Increase): fold increase in Coenzyme A (CoA) levels relative to controls” value was 21.67 Fold Increase.
With `COC(=O)CCNC(=O)[C@@H]1OP(=O)(N[C@H](C(=O)OC)C2CCCCC2)OCC1(C)C` (stereo partly drawn) [compound 12, methyl 3-((4R)-2-(((S)-1-cyclohexyl-2-methoxy-2-oxoethyl)amino)-5,5-dimethyl-2-oxido-1,3,2-dioxaphosphinane-4-carboxamido)propanoate] the “PANK2−/− CoA (Fold Increase): fold increase in Coenzyme A (CoA) levels relative to controls” value was 1.28 Fold Increase.
For `COC(=O)CCNC(=O)[C@@H]1O[P@@](=O)(OCOC(=O)c2cc(C(C)(C)C)n[nH]2)OCC1(C)C` [2-186, (((2S,4R)-4-((3-methoxy-3-oxopropyl)carbamoyl)-5,5-dimethyl-2-oxido-1,3,2-dioxaphosphuian-2-yl)oxy)methyl 3-(tert-butyl)-1H-pyrazole-5-carboxylate], the “PANK2−/− CoA (Fold Increase): fold increase in Coenzyme A (CoA) levels relative to controls” value was 101.14 Fold Increase.
For `COC(=O)CCNC(=O)[C@@H]1O[P@](=O)(Oc2ccccc2C(=O)OC)OCC1(C)C` [2-166], the “PANK2−/− CoA (Fold Increase): fold increase in Coenzyme A (CoA) levels relative to controls” value was 3.61 Fold Increase.
In the case of `COC(=O)CCNC(=O)[C@@H]1O[P@@](=O)(Oc2ccc(F)cc2)OCC1(C)C` [2-178, methyl 3-((2S,4R)-2-(4-fluorophenoxy)-5,5-dimethyl-2-oxido-1,3,2-dioxaphosphinane-4-carboxamido)propanoate], the “PANK2−/− CoA (Fold Increase): fold increase in Coenzyme A (CoA) levels relative to controls” value is reported as 2.3 Fold Increase.
For `COC(=O)CCNC(=O)[C@@H]1O[P@](=O)(OCOC(=O)N[C@@H](CSC(=O)C(C)(C)C)C(=O)OCc2ccccc2)OCC1(C)C` [2-206, benzyl N-(((((2R,4R)-4-((3-methoxy-3-oxopropyl)carbamoyl)-5,5-dimethyl-2-oxido-1,3,2-dioxaphosphinan-2-yl)oxy)methoxy)carbonyl)-S-pivaloyl-L-cysteinate], the “PANK2−/− CoA (Fold Increase): fold increase in Coenzyme A (CoA) levels relative to controls” value was 64.41 Fold Increase.
For `COC(=O)CCNC(=O)[C@@H]1OP(=O)(OCOC(=O)c2cc(C)nn2C)OCC1(C)C` (stereo partly drawn) [2-145, (((4R)-4-((3-methoxy-3-oxopropyl)carbamoyl)-5,5-dimethyl-2-oxido-1,3,2-dioxaphosphinan-2-yl)oxy)methyl 1,3-dimethyl-1H-pyrazole-5-carboxylate], the “PANK2−/− CoA (Fold Increase): fold increase in Coenzyme A (CoA) levels relative to controls” value was 42.44 Fold Increase.
With `COC(=O)CCNC(=O)[C@@H]1OP(=O)(OCOC(=O)NC(C)(C)COC(=O)C(C)(C)C)OCC1(C)C` (stereo partly drawn) [2-167, 2-((((((4R)-4-((3-methoxy-3-oxopropyl)carbamoyl)-5,5-dimethyl-2-oxido-1,3,2-dioxaphosphinan-2-yl)oxy)methoxy)carbonyl)amino)-2-methylpropyl pivalate] the “PANK2−/− CoA (Fold Increase): fold increase in Coenzyme A (CoA) levels relative to controls” value was 3.26 Fold Increase.
In the case of `COC(=O)CCNC(=O)[C@@H]1O[P@](=O)(Oc2ccc(C[C@H](N)C(=O)OC)cc2)OCC1(C)C` [2-163, Methyl (S)-2-amino-3-(4-(((2R,4R)-4-((3-methoxy-3-oxopropyl)carbamoyl)-5,5-dimethyl-2-oxido-1,3,2-dioxaphosphinan-2-yl)oxy)phenyl)propanoate], the “PANK2−/− CoA (Fold Increase): fold increase in Coenzyme A (CoA) levels relative to controls” value is reported as 81.21 Fold Increase.
In the case of `COC(=O)CCNC(=O)[C@@H]1O[P@](=O)(Oc2ccc([N+](=O)[O-])cc2)OCC1(C)C` (single isomer, unassigned) [Compound No. 2-120], the “PANK2−/− CoA (Fold Increase): fold increase in Coenzyme A (CoA) levels relative to controls” value is reported as 21.05 Fold Increase.
For `COC(=O)CCNC(=O)[C@@H]1O[P@@](=O)(OCOC(=O)NC(C)(C)COC(=O)[C@@H](NC(=O)OCc2ccccc2)C(C)C)OCC1(C)C` [2-172, 2-((((((2S,4R)-4-((3-methoxy-3-oxopropyl)carbamoyl)-5,5-dimethyl-2-oxido-1,3,2-dioxaphosphinan-2-yl)oxy)methoxy)carbonyl)amino)-2-methylpropyl ((benzyloxy)carbonyl)-L-valinate], the “PANK2−/− CoA (Fold Increase): fold increase in Coenzyme A (CoA) levels relative to controls” value was 1.95 Fold Increase.
With `COC(=O)CCNC(=O)[C@@H]1O[P@](=O)(N2CCS(=O)(=O)CC2)OCC1(C)C` [compound 138, methyl 3-((2S,4R)-2-(1,1-dioxidothiomorpholino)-5,5-dimethyl-2-oxido-1,3,2-dioxaphosphinane-4-carboxamido) propanoate] the “PANK2−/− CoA (Fold Increase): fold increase in Coenzyme A (CoA) levels relative to controls” value was 1.7 Fold Increase.
`CO[13C](=O)[13CH2][13CH2][15NH]C(=O)[C@@H]1OP(=O)(Oc2ccccc2)OCC1(C)C` (stereo partly drawn) [2-109, methyl 3-((4R)-5,5-dimethyl-2-oxido-2-phenoxy-1,3,2-dioxaphosphinane-4-carboxamido-15N)propanoate-1,2,3-13C3] was tested, and the “PANK2−/− CoA (Fold Increase): fold increase in Coenzyme A (CoA) levels relative to controls” value was 2.04 Fold Increase.
In the case of `CCOC(=O)CCNC(=O)[C@@H]1OP(=O)(OCOC(=O)C(C)(C)C)OCC1(C)C` (single isomer, unassigned) [Compound No. 107], the “PANK2−/− CoA (Fold Increase): fold increase in Coenzyme A (CoA) levels relative to controls” value is reported as 85.06 Fold Increase.
In the case of `COC(=O)CCNC(=O)[C@@H]1OP(=O)(OCOC(=O)NCCOC(=O)[C@@H](NC(=O)OCc2ccccc2)C(C)C)OCC1(C)C` (stereo partly drawn) [2-181, 2-((((((4R)-4-((3-methoxy-3-oxopropyl)carbamoyl)-5,5-dimethyl-2-oxido-1,3,2-dioxaphosphuian-2-yl)oxy)methoxy)carbonyl)amino) ethyl((benzyloxy)carbonyl)-L-valinate], the “PANK2−/− CoA (Fold Increase): fold increase in Coenzyme A (CoA) levels relative to controls” value is reported as 49.59 Fold Increase.
